Data published in patent US11203600B2 (Denali Therapeutics Inc., priority 2017, dated 2021).
pIC50: −log10 of the molar value.

molecular target: GST-hRIPK1 (8-327) (Homo sapiens (Human), UniProt Q13546); assay: Fluorescent Polarization Binding (FP Binding) assay, RIPK1; settings: 10 nM GST-hRIPK1 (8-327), 5 nM fluorescent-labeled ligand, RT, 30 min, mean of at least two independent experiments
How it was run: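 Binding by fluorescence polarisation at RT: 10 nM baculovirus-expressed GST-hRIPK1 (8-327) and 5 nM fluorescent ligand, 30 min, in 50 mM HEPES pH 7.5, 50 mM MgCl2, 0.02% CHAPS, 1% DMSO. FP read at ex 531/em 595 nm. IC50 from normalised percent inhibition, mean of ≥2 experiments.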

GST-hRIPK1 (8-327), sequence (Q13546 8-327): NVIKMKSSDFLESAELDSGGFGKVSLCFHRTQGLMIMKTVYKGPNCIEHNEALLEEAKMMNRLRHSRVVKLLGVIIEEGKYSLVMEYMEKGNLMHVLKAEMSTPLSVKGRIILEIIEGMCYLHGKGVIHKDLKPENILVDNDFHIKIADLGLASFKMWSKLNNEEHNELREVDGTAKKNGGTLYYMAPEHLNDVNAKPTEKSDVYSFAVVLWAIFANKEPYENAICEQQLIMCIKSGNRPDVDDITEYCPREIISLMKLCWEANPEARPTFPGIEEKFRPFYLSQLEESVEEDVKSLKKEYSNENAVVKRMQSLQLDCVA

| SMILES | pIC50 |
| --- | --- |
| N#Cc1cncc2c1OCCN(C(=O)C1(F)CCN(c3ncncc3F)CC1)C2 [Example 112, 4-(4-fluoro-1-(5-fluoropyrimidin-4-yl)piperidine-4-carbonyl)-2,3,4,5-tetrahydropyrido[3,4-f][1,4]oxazepine-9-carbonitrile] | 6.00 to 7.00 |
| N#Cc1cncc2c1OCCN(C(=O)C1(F)CCN(c3ncccn3)CC1)C2 [Example 157, 4-(4-fluoro-1-pyrimidin-2-yl-piperidine-4-carbonyl)-3,5-dihydro-2H-pyrido[3,4-f][1,4]oxazepine-9-carbonitrile] | 7.00 to 10.00 |
| CC(C)(C)C(=O)N1CCOc2c(F)cncc2C1 [Example 80, 1-(9-fluoro-3,5-dihydro-2H-pyrido[3,4-f][1,4]oxazepin-4-yl)-2,2-dimethyl-propan-1-one] | 6.00 to 7.00 |
| CC(C)(CC(F)(F)F)C(=O)N1CCOc2c(C#N)cncc2C1 [Example 47, 4-(4,4,4-trifluoro-2,2-dimethyl-butanoyl)-3,5-dihydro-2H-pyrido[3,4-f][1,4]oxazepine-9-carbonitrile] | 7.00 to 10.00 |
| N#Cc1cncc2c1OCCN(C(=O)C1(C(F)F)CCC1)C2 [Example 49, 4-[1-(difluoromethyl)cyclobutanecarbonyl]-3,5-dihydro-2H-pyrido[3,4-f][1,4]oxazepine-9-carbonitrile] | 7.00 to 10.00 |
| N#Cc1ccnc(N2CCC(F)(C(=O)N3CCOc4c(F)cncc4C3)CC2)n1 [Example 160, 2-[4-fluoro-4-(9-fluoro-3,5-dihydro-2H-pyrido[3,4-f][1,4]oxazepine-4-carbonyl)-1-piperidyl]pyrimidine-4-carbonitrile] | 6.00 to 7.00 |
| CC(C)(OC(F)(F)F)C(=O)N1CCOc2c(C#N)cncc2C1 [Example 69, 4-[2-methyl-2-(trifluoromethoxy)propanoyl]-3,5-dihydro-2H-pyrido[3,4-f][1,4]oxazepine-9-carbonitrile] | 7.00 to 10.00 |
| CC(C)(CSc1ncc(F)cn1)C(=O)N1CCOc2c(C#N)cncc2C1 [Example 181] | < 6.00 |
| CC(C#N)C(C)(C)C(=O)N1CCOc2c(C#N)cncc2C1 (stereo not drawn) [Example 72] | 6.00 to 7.00 |
| N#Cc1cncc2c1OCCN(C(=O)C1(F)CCN(c3cnc4ccccc4n3)CC1)C2 [Example 198, 4-(4-fluoro-1-quinoxalin-2-yl-piperidine-4-carbonyl)-3,5-dihydro-2H-pyrido[3,4-f][1,4]oxazepine-9-carbonitrile] | 6.00 to 7.00 |

same assay, conditions: GST-hRIPK1 (8-327), mean of at least two independent experiments

| SMILES | pIC50 |
| --- | --- |
| CC(C(=O)N1CCOc2c(C#N)cncc2C1)(C(F)F)C1CC1 (single isomer, unassigned) [Example 258, 4-(2-Cyclopropyl-3,3-difluoro-2-methyl-propanoyl)-3,5-dihydro-2H-pyrido[3,4-f][1,4]oxazepine-9-carbonitrile] | 7.00 to 10.00 |
| COc1nc(N2CCC(OC)(C(=O)N3CCOc4ccncc4C3)CC2)ncc1F [Example 235, 3,5-dihydro-2H-pyrido[3,4-f][1,4]oxazepin-4-yl-[1-(5-fluoro-4-methoxy-pyrimidin-2-yl)-4-methoxy-4-piperidyl]methanone] | 7.00 to 10.00 |
| CC(C)(C(=O)N1CCOc2c(C#N)cncc2C1)C1CC(OC(F)(F)F)C1 (stereo not drawn) [Example 279, 4-[2-methyl-2-[3-(trifluoromethoxy)cyclobutyl]propanoyl]-3,5-dihydro-2H-pyrido[3,4-f][1,4]oxazepine-9-carbonitrile] | 7.00 to 10.00 |
| COC1(C(=O)N2CCOc3c(C#N)cncc3C2)CCN(c2ncc(F)c(C3CC3)n2)CC1 [Example 233, 4-[1-(4-cyclopropyl-5-fluoro-pyrimidin-2-yl)-4-methoxy-piperidine-4-carbonyl]-3,5-dihydro-2H-pyrido[3,4-f][1,4]oxazepine-9-carbonitrile] | 7.00 to 10.00 |
| N#Cc1cncc2c1OCCN(C(=O)C1CCN(c3ncc(F)cn3)CC1O)C2 (stereo not drawn) [Example 211, 4-[1-(5-fluoropyrimidin-2-yl)-3-hydroxy-piperidine-4-carbonyl]-3,5-dihydro-2H-pyrido[3,4-f][1,4]oxazepine-9-carbonitrile] | 6.00 to 7.00 |
